# According to publication PMC9046087, “Structural basis of tethered agonism of the adhesion GPCRs ADGRD1 and ADGRF1” (Nature, 2022):
# Ends that are not written are not given here.
# B1: G702^4.45bY (protein, UniProt Q5T601 20-910, looked up, variant G702Y)
# Adhesion G-protein coupled …: GFLGKNDGIKTKKELIVNKKKHLGPVEEYQLLLQVTYRDSKEKRDLRNFLKLLKPPLLWSHGLIRIIRAKATTDCNSLNGVLQCTCEDSYTWFPPSCLDPQNCYLHTAGALPSCECHLNNLSQSVNFCERTKIWGTFKINERFTNDLLNSSSAIYSKYANGIEIQLKKAYERIQGFESVQVTQFRNGSIVAGYEVVGSSSASELLSAIEHVAEKAKTALHKLFPLEDGSFRVFGKAQCNDIVFGFGSKDDEYTLPCSSGYRGNITAKCESSGWQVIRETCVLSLLEELNKNFSMIVGNATEAAVSSFVQNLSVIIRQNPSTTVGNLASVVSILSNISSLSLASHFRVSNSTMEDVISIADNILNSASVTNWTVLLREEKYASSRLLETLENISTLVPPTALPLNFSRKFIDWKGIPVNKSQLKRGYSYQIKMCPQNTSIPIRGRVLIGSDQFQRSLPETIISMASLTLGNILPVSKNGNAQVNGPVISTVIQNYSINEVFLFFSKIESNLSQPHCVFWDFSHLQWNDAGCHLVNETQDIVTCQCTHLTSFSILMSPFVPSTIFPVVKWITYVGLGISIGSLILCLIIEALFWKQIKKSQTSHTRRICMVNIALSLLIADVWFIVGATVDTTVNPSGVCTAAVFFTHFFYLSLFFWMLMLGILLAYRIILVFHHMAQHLMMAVYFCLGYGCPLIISVITIAVTQPSNTYKRKDVCWLNWSNGSKPLLAFVVPALAIVAVNFVVVLLVLTKLWRPTVGERLSRDDKATIIRVGKSLLILTPLLGLTWGFGIGTIVDSQNLAWHVIFALLNAFQGFFILCFGILLDSKLRQLLFNKLSALSSWKQTEKQNSSDLSAKPKFSKPFNPLQNKGHYAFSHTGDSSDNIMLTQFVSNE
# B2: V689^ICL2A (protein, UniProt Q5T601 20-910, looked up, variant V689A)
# Adhesion G-protein coupled …: GFLGKNDGIKTKKELIVNKKKHLGPVEEYQLLLQVTYRDSKEKRDLRNFLKLLKPPLLWSHGLIRIIRAKATTDCNSLNGVLQCTCEDSYTWFPPSCLDPQNCYLHTAGALPSCECHLNNLSQSVNFCERTKIWGTFKINERFTNDLLNSSSAIYSKYANGIEIQLKKAYERIQGFESVQVTQFRNGSIVAGYEVVGSSSASELLSAIEHVAEKAKTALHKLFPLEDGSFRVFGKAQCNDIVFGFGSKDDEYTLPCSSGYRGNITAKCESSGWQVIRETCVLSLLEELNKNFSMIVGNATEAAVSSFVQNLSVIIRQNPSTTVGNLASVVSILSNISSLSLASHFRVSNSTMEDVISIADNILNSASVTNWTVLLREEKYASSRLLETLENISTLVPPTALPLNFSRKFIDWKGIPVNKSQLKRGYSYQIKMCPQNTSIPIRGRVLIGSDQFQRSLPETIISMASLTLGNILPVSKNGNAQVNGPVISTVIQNYSINEVFLFFSKIESNLSQPHCVFWDFSHLQWNDAGCHLVNETQDIVTCQCTHLTSFSILMSPFVPSTIFPVVKWITYVGLGISIGSLILCLIIEALFWKQIKKSQTSHTRRICMVNIALSLLIADVWFIVGATVDTTVNPSGVCTAAVFFTHFFYLSLFFWMLMLGILLAYRIILAFHHMAQHLMMAVGFCLGYGCPLIISVITIAVTQPSNTYKRKDVCWLNWSNGSKPLLAFVVPALAIVAVNFVVVLLVLTKLWRPTVGERLSRDDKATIIRVGKSLLILTPLLGLTWGFGIGTIVDSQNLAWHVIFALLNAFQGFFILCFGILLDSKLRQLLFNKLSALSSWKQTEKQNSSDLSAKPKFSKPFNPLQNKGHYAFSHTGDSSDNIMLTQFVSNE
# Columns and labels:
# ADGRF1 [1] = target: T1, ADGRF1 (Homo sapiens, UniProt Q5T601); test: BRET assay using TRUPATH biosensors, Gi activation of ADGRF1; assay type: cell-based; settings: ADGRF1 WT; for Emax (mean ± s.e.m.): n = 3; for EC50: n = 3, read-out: pEC50 (mean ± s.e.m.) (converted)
# T1 construct: Flag (N); expressed in transfected cells; host or cells: HEK293F
# T1 sequence (Q5T601 20-910): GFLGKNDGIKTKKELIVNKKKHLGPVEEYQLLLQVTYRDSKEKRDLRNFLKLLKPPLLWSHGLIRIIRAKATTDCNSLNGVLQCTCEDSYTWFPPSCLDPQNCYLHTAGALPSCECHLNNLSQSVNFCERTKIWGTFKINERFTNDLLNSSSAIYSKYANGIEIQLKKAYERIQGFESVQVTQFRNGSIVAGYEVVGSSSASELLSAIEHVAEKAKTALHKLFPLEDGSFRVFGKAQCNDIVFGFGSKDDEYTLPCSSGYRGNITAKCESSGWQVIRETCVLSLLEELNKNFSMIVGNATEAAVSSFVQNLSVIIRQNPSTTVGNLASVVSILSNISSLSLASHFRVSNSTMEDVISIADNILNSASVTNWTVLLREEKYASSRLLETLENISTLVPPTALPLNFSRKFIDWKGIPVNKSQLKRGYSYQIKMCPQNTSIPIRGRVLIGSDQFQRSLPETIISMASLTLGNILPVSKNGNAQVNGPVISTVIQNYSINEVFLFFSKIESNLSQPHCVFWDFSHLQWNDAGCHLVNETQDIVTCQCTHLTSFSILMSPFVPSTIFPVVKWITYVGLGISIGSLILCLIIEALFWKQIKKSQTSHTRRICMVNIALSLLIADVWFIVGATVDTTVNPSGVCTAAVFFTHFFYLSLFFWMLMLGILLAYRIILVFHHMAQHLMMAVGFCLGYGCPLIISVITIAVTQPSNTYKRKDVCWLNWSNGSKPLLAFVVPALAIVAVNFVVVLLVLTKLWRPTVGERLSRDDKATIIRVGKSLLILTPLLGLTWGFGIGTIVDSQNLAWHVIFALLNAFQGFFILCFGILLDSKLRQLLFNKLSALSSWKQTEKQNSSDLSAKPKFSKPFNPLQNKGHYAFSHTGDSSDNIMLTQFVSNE
# Protocol: (§1) To study the synthetic stalk peptide-induced G protein activation of ADGRD1 and ADGRF1, a BRET assay using TRUPATH biosensors was conducted to measure the proximal interaction between RLuc8 fused to the Gα subunit and GFP2 fused to the Gγ subunit. The TRUPATH suite of biosensors was obtained from Addgene (Addgene kit no. 1000000163) as a gift from B. Roth, including GαsS-RLuc8, Gαi1-RLuc8, Gβ3 and Gγ9-GFP2 as previously described.
# (§2) The wild-type or mutant ADGRD1 and ADGRF1 were transiently co-transfected with plasmids encoding Gα-RLuc8 (GαsS-RLuc8 for Gs activation assay; Gαi1-RLuc8 for Gi activation assay), Gβ3 and Gγ9-GFP2 at a ratio of 2:1:1:1 (receptor plasmid, 800 ng; G protein subunit plasmids, 400 ng for each) in 2 ml HEK293F cells at a density of 1.2 × 10^6 cells per ml. Cell cultivation and receptor surface expression measurement were performed as described above. The cells were plated into 96-well white plates (40,000 cells per well) in 60 μl of assay buffer and incubated at 37 °C for 30 min. Then 10 μl of freshly prepared 50 μM coelenterazine 400a (Nanolight Technologies) was added. […] The cells were stimulated with 30 μl of synthetic stalk peptide at different concentrations and the BRET signals were monitored continuously five times. The last measurements were used in data analysis. The BRET ratios were calculated as the ratio of the GFP2 emission to RLuc8 emission.
# ADGRD1 = target: T2, ADGRD1 (Homo sapiens, UniProt Q6QNK2); test: BRET assay using TRUPATH biosensors, G protein activation of ADGRD1; assay type: cell-based; settings: Gs, ADGRD1 WT, n = 3; for EC50: read-out: pEC50 (mean ± s.e.m.) (converted)
# T2 construct: Flag (N); expressed in transfected cells; host or cells: HEK293F
# T2 sequence (Q6QNK2 26-874): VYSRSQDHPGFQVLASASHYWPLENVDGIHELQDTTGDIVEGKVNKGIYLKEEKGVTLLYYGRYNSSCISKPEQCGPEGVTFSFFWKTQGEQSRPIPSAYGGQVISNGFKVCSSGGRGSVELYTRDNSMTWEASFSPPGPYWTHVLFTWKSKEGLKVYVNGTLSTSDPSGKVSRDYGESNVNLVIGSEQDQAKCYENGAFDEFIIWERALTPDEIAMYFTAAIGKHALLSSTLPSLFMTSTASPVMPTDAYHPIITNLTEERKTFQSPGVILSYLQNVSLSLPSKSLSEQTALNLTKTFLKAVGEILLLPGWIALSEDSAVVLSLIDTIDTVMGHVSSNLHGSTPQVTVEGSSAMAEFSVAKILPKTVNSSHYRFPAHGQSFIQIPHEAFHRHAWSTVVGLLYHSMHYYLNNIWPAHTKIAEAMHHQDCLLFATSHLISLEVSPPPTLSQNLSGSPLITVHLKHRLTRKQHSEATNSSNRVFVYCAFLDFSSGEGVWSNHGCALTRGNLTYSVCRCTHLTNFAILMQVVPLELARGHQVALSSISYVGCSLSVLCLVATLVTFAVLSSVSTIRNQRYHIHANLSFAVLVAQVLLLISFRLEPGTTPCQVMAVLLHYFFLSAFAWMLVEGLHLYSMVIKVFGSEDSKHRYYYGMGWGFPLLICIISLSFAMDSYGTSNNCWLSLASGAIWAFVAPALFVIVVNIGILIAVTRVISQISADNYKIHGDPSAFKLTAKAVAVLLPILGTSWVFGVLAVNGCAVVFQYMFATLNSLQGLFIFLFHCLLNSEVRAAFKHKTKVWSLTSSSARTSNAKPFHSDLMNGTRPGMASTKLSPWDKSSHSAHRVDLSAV
# Protocol: as §1, §2
# ADGRF1 [2] = test: Cell-surface expression by flow cytometry, ADGRF1; assay type: cell-based, human; settings: anti-Flag antibody, three independent measurements in duplicate
# Protocol: The wild-type ADGRD1 and ADGRF1 and mutants used in functional studies were constructed into a pTT5 vector with a Flag tag at the N terminus for receptor expression measurement. The basal activity of ADGRD1 and ADGRF1 in mediating Gs signalling was measured by a cAMP accumulation assay using a LANCE Ultra cAMP detection kit (PerkinElmer) following the manufacturer’s instruction. In brief, 2 ml HEK293F cells (Invitrogen; cells were routinely tested for mycoplasma contamination) at a density of 1.2 × 10^6 cells per ml were transiently transfected with 2,000 ng plasmid of the wild-type or mutant receptor and cultured at 37 °C for 48 h with 5% CO2 atmosphere in a shaker shaking at 220 rpm. After collection, the cell-surface expression of the receptors was measured by incubating 10 μl cells with 15 μl monoclonal anti-Flag M2-FITC antibody (Sigma; 1:120 diluted in TBS supplemented with 4% BSA and 20% viability staining solution 7-AAD (Invitrogen)) at 4 °C for 20 min. After incubation, 175 μl TBS buffer was added and the fluorescent signal was measured using a flow cytometry reader (Guava easyCyte HT, Millipore).
# [3] = ADGRF1 constructs (pF1 Gi part of table)
molecule,measurement,setting,value
CC[C@H](C)[C@H](NC(=O)[C@H](C)NC(=O)[C@H](Cc1ccccc1)NC(=O)[C@H](CC(N)=O)NC(=O)[C@@H](N)[C@@H](C)O)C(=O)N[C@@H](CC(C)C)C(=O)N[C@@H](CCSC)C(=O)N[C@@H](CCC(N)=O)C(=O)N[C@H](C(=O)N[C@H](C(=O)N1CCC[C@H]1C(=O)N[C@@H](CC(C)C)C(=O)N[C@@H](CCC(=O)O)C(=O)O)C(C)C)C(C)C [pD1],Emax (mean ± s.e.m.),ADGRF1 [1],82 ± 8 % of WT
same,EC50,ADGRF1 [1],132 nM
TNAAILMQVVPLE [pD1 (F547^S3A)],Emax (mean ± s.e.m.),ADGRD1,69 ± 13 % of WT
same,EC50,ADGRD1,724 nM
TNFAIAMQVVPLE [pD1 (L550^S6A)],Emax (mean ± s.e.m.),ADGRD1,53 ± 5 % of WT
same,EC50,ADGRD1,166 nM
TNFAILAQVVPLE [pD1 (M551^S7A)],Emax (mean ± s.e.m.),ADGRD1,79 ± 10 % of WT
same,EC50,ADGRD1,263 nM
TSASILMSPFVP [pF1 (F569^S3A)],Emax (mean ± s.e.m.),ADGRF1 [1],108 ± 7 % of WT
same,EC50,ADGRF1 [1],380 nM
TSFSIAMSPFVP [pF1 (L572^S6A)],Emax (mean ± s.e.m.),ADGRF1 [1],101 ± 12 % of WT
same,EC50,ADGRF1 [1],676 nM
TSFSILASPFVP [pF1 (M573^S7A)],Emax (mean ± s.e.m.),ADGRF1 [1],87 ± 11 % of WT
same,EC50,ADGRF1 [1],501 nM
B1,Cell-surface expression (% of WT),ADGRF1 [2]; [3],87 ± 12 % of WT
same,Cell-surface expression (% of WT),"ADGRF1 [2]; ADGRF1 constructs, in parallel to A8-induced Gi activation",94 ± 1 % of WT
same,Cell-surface expression (% of WT),"ADGRF1 [2]; ADGRF1 constructs, in parallel to A8-induced Gs activation",104 ± 2 % of WT
B2,Cell-surface expression (% of WT),ADGRF1 [2]; [3],112 ± 3 % of WT
same,Cell-surface expression (% of WT),"ADGRF1 [2]; ADGRF1 constructs, in parallel to pF1-induced Gs activation",114 ± 10 % of WT
